Laboratory results as given in US20230000943A1, “METHOD OF INDUCING SYNAPTOGENESIS BY ADMINISTERING ANGIOTENSIN AND ANALOGUES THEREOF” (Synaptogenix, Inc., priority 2021, published 2023).
Read-outs that look alike come from different tables or passages of the source.

How the values were obtained:
[1] = molecular target: PKC; details: cited from earlier work
[2] = test system: squamous cell carcinoma and melanoma; details: used topically; cited from earlier work
[3] = parameters: species or system mice; details: mouse, in vivo, iv
Excerpt: (§1) Mouse studies may be performed using an angiotensin, as described above, in accordance with the protocol described below. The following metrics may be used to evaluate dosing regimens: induction of brain postsynaptic anchoring protein PSD-95, upregulation of BDNF levels in brain, upregulation of HGF levels in brain, minimal downregulation of PKC-ε levels, and elevation of brain and plasma concentrations of the angiotensin. Groups of 2-3 mice may be formed and housed in an approved research animal facility. Water may be given ad libitum. A first study involves three groups of mice with animals in each group dosed weekly for 1, 2, 3, or 6 consecutive weeks. Each group has its own control group containing the same number of mice. For example, mice in the first, second and third groups may receive an intravenous (i.v.) injection of 10 μg/m^2, 15 μg/m^2, and 25 μg/m^2 dose of an angiotensin. For each dose, mice in that group may receive a single injection of the angiotensin weekly for a predetermined number of consecutive weeks. Following dosing, mice are sacrificed, and the blood and brain of each animal is collected for further analysis.

[4] = test system: PSD-95; assay: Mouse dosing study: PSD-95 levels; assay type: in vivo, mice; details: 25 μg/m^2 i.v. once per week, after three weeks
Excerpt: as §1

[5] = test system: BDNF; assay: Mouse dosing study: brain BDNF levels; assay type: in vivo; details: mice
Excerpt: as §1

[6] = molecular target: PKC; details: competes with [3H] phorbol dibutyrate; read-out: Ki for binding to PKC; cited from earlier work
[7] = molecular target: protein kinase C; details: specifically the (−)-enantiomer; read-out: potency (EC50); cited from earlier work
[8] = test system: NCI 60 cell line; details: NCI 60 cell line screen; cited from earlier work
[9] = A-ring bryologs, read-out: affinity for PKC

CCCCCCCC(=O)OC1C(=CC(=O)OC)CC2CC(CO)OC(=O)CC(O)CCOC(C(C)(C)C)CC3CCOC(C=CC(C)(C)C1(O)O2)O3 (stereo not shown) [bryolog 3]
Ki [1, 9]: 6.5 nM

CCCCCCCC(=O)O[C@H]1/C(=C/C(=O)OC)CC2C[C@H](CO)OC(=O)C[C@H](O)C[C@@H]3CCC[C@H](C[C@@H]4CCO[C@H](/C=C/C(C)(C)[C@]1(O)O2)O4)O3 [Analog 1]
Ki ([1]; Table 1 Bryologs, read-out: PKC Affin): 0.25 nM
affinity for PKC (in words) ([1]; compared with Bryostatin-1 and the other bryologs): highest affinity for PKC

CCCCCCCC(=O)OC1C(=CC(=O)OC)CC2CC(CO)OC(=O)CC(O)CCOC(c3ccccc3)CC3CCOC(C=CC(C)(C)C1(O)O2)O3 (stereo not shown) [bryolog 4]
Ki [1, 9]: 2.3 nM

C/C=C(/C)C(=O)O[C@H]1C(C)=C[C@]23C(=O)[C@@H](C=C(CO)[C@@H](O)[C@]12O)[C@H]1[C@@H](C[C@H]3C)C1(C)C [Ingenol-3-angelate]
antitumor activity [2]: exhibits antitumor activity

angiotensin
concentration in brain relative to plasma [3]: less than its concentration in plasma
crossing of the blood-brain-barrier [3]: crosses the BBB
PSD-95 in brain and blood samples [4]: higher amounts of PSD-95
brain BDNF levels ([5]; 15 μg/m^2 for three consecutive weeks): some increase
brain BDNF levels ([5]; 25 μg/m^2): maximum increase
brain BDNF levels ([5]; 25 μg/m^2, 3 on/3 off/3 on regimen): remain elevated
brain BDNF levels ([5]; after three consecutive weekly doses at 25 μg/m^2): highest level

CC1=C[C@]23C(=O)[C@@H](C=C(COC(=O)c4ccccc4)[C@@H](O)[C@]2(O)[C@H]1OC(=O)c1ccccc1)[C@H]1[C@@H](C[C@H]3C)C1(C)C [Ingenol 3,20-dibenzoate]
Ki [6]: 240 nM

CCCCCCCC(=O)OC1C(=CC(=O)OC)CC2CC(CO)OC(=O)CC(O)CCOC(CCCc3ccc(Br)cc3)CC3CCOC(C=CC(C)(C)C1(O)O2)O3 (stereo not shown) [bryolog 5]
Ki [1, 9]: 1.9 nM

CCCCCCCCc1ccc2c3c(c[nH]c13)C[C@@H](CO)NC(=O)[C@H](C(C)C)N2C [octylindolactam V, Octylindolactam V]
EC50 [7]: 29 nM

CC1=CC[C@H](C)C(C)(C)[C@@H]1/C=C/C(C)=C/CC[C@@]1(CO)[C@H](CCCO)/C(=C(/C)C=O)CC[C@]1(C)O [Iripallidal]
GI50 (concentration required to inhibit growth by 50%) [8]: micromolar to nanomolar range
